Results from US20100093700A1, “Methods of Treating Mood Disorders” (priority 2007, published 2010).

Columns and labels:
[1] = biological target: T1, dopamine D2 receptor (Rattus norvegicus, UniProt P61169); assay: In-vitro binding, dopamine D2 receptor; settings: dihydrochloride salt; read-out: binding affinity for dopamine D2 receptor (K1)
T1 construct: relative to dopamine (D2) receptors in the brain; from tissue; host or cells: brain

[2] = biological target: T2, dopamine D1 receptor (Rattus norvegicus, UniProt P18901); assay: In-vitro binding, dopamine D1 receptor; settings: dihydrochloride salt; read-out: binding affinity for dopamine D1 receptor (K1)
T2 construct: from tissue; host or cells: brain

[3] = biological target: brain serotonin 5-HT2 receptor (UniProt P14842); assay: In-vitro binding, brain serotonin 5-HT2 receptor; settings: dihydrochloride salt; read-out: binding affinity for brain serotonin 5-HT2 receptor (K1)
[4] = tested on: apomorphine climbing; assay: Standard apomorphine climbing mouse assay; assay type: in vivo; settings: mice, p.o.
From the text: (§1) An assessment of dopamine antagonism was made in rodent models.

[5] = biological target: T3, Adrenergic α1A (Rattus norvegicus, UniProt P43140); assay: Radioligand binding 203100 Adrenergic α1A
T3 construct: 203100
From the text: (§2) Receptor binding methods, α-adrenergic subtype specific, are provided below.

[6] = biological target: T4, 5HT Transporter (Homo sapiens, UniProt P31645); assay: PET scans of primate subjects, 5HT Transporter; assay type: in vivo; settings: preliminary PET
T4 construct: from tissue; host or cells: brain of living primates (PET)
From the text: (§3) The compound of Formula I is a dibenzothiazepine that has shown antidopaminergic activity.

[7] = biological target: D2 receptors (Homo sapiens, UniProt P14416); assay: PET scans of primate subjects, D2; assay type: in vivo; settings: preliminary PET
[8] = biological target: T5, 5-HT1A receptors (Homo sapiens, UniProt P08908); assay: PET scans of primate subjects, 5-HT1A; assay type: in vivo; settings: preliminary PET
T5 construct: from tissue; host or cells: brain of living primates (PET)
From the text: as §3

[9] = biological target: T6, Adrenergic α1D (Homo sapiens, UniProt P25100); assay: Radioligand binding 203400 Adrenergic α1D; settings: hum
T6 construct: host or cells: HEK-293
From the text: as §2

[10] = tested on: immobility; assay: Mouse forced swim test (FST); assay type: in vivo; settings: 15 minutes prior
Procedure: The mouse forced swim test (FST) has been used to assess antidepressant potential of novel compounds (Porsolt; Lucki). Methods: Mice were placed in cylinders of water (25.0° C.±1.5° C.) for 6 minutes. The amount of immobility was quantified during the last 4 min of each session. The experimental observer was blind to the treatment conditions. […] Imipramine 45.0 mg/kg and citalopram 15.0 mg/kg were measured as the salt and administered ip 60 minutes prior to the behavioral session.

[11] = tested on: Adrenergic α1* Non-Selective; assay: Radioligand binding 203500 Adrenergic α1 Non-Selective; settings: rat
From the text: (§4) Receptor binding methods, α-adrenergic nonselective, are provided below.

[12] = biological target: Transporter, Norepinephrine (NET) (Homo sapiens, UniProt P23975); assay: Radioligand binding assay, norepinephrine transporter
Procedure: The following examples set forth parameters for the radioligand binding assay that was carried out.

[13] = biological target: Adrenergic α2B (Homo sapiens, UniProt P18089); assay: Radioligand binding Adrenergic α2B; settings: hum
[14] = tested on: immobility; assay: Tail suspension test; assay type: in vivo, mice; settings: for reduction of immobility relative to vehicle control group: p<0.01
Procedure: In a first experiment, mice (n−10/group) were treated with vehicle, 2.0, 5.0, or 10.0 mg/kg of 11-piperazin-1-yldibenzo[b,f][1,4]thiazepine s.c. 15 minutes prior to the test session. Mice were suspended from their tails for 7 minutes. During the last 5 minutes of the test, the duration of immobility was recorded. In a second experiment, mice (n=10/group) were treated with vehicle, 30 mg/kg 11-piperazin-1-yldibenzo[b,f][1,4]thiazepine, or 30 mg/kg fluoxetine p.o. 60 minutes prior to the test session. Mice were suspended from their tails for 7 minutes. During the last 5 minutes of the test, the duration of immobility was recorded.

[15] = tested on: D-amphetamine locomotor activity; assay: D-amphetamine locomotor activity test; assay type: in vivo, rat; settings: rats, s.c., freebase
From the text: as §1

[16] = Brain exposure in rats; assay type: in vivo; settings: one hour after 30 μmol/kg po
Procedure: Brain exposure was measured in rats. For concentrations of 11-piperazin-1-yldibenzo[b,f][1,4]thiazepine in brain, rats were dosed either po or iv (n=3 per dose route). At one hour after compound administration, blood and brain samples were obtained and then processed for analysis using HPLC/MS to measure concentrations of 11-piperazin-1-yldibenzo[b,f][1,4]thiazepine.

[17] = tested on: Adrenergic α2* Non-Selective; assay: Radioligand binding 203900 Adrenergic α2 Non-Selective; settings: rat
From the text: as §4

[18] = Oral bioavailability in dogs; assay type: in vivo; settings: dog, plasma, Beagle dogs
[19] = biological target: Adrenergic α2A (Homo sapiens, UniProt P08913); assay: Radioligand binding Adrenergic α2A; settings: hum
[20] = Oral bioavailability in monkeys; assay type: in vivo; settings: cynomolgus monkey, plasma
[21] = biological target: T7, Adrenergic α1B (Rattus norvegicus, UniProt P15823); assay: Radioligand binding 203200 Adrenergic α1B
T7 construct: 203200
From the text: as §2

[22] = biological target: T8, 5-HT2A receptors (Homo sapiens, UniProt P28223); assay: PET scans of primate subjects, 5-HT2A; assay type: in vivo; settings: preliminary PET
T8 construct: from tissue; host or cells: brain of living primates (PET)
From the text: as §3

[23] = biological target: Uptake, Norepinephrine (Homo sapiens, UniProt P23975); assay: Functional assay measuring norepinephrine uptake; assay type: cell-based; settings: [3H]Norepinephrine uptake, MDCK cells; read-out: EC50/IC50
Procedure: The following examples set forth parameters for the functional assay measuring norepinephrine uptake that was carried out.

[24] = biological target: Adrenergic α2C (Homo sapiens, UniProt P18825); assay: Radioligand binding Adrenergic α2C; settings: hum
[25] = biological target: T9, D1 receptors (Homo sapiens, UniProt P21728); assay: PET scans of primate subjects, D1; assay type: in vivo; settings: preliminary PET
T9 construct: from tissue; host or cells: brain of living primates (PET)
From the text: as §3

[26] = 30 mg/kg p.o., 60 minutes prior

T6 sequence (P25100 whole entry): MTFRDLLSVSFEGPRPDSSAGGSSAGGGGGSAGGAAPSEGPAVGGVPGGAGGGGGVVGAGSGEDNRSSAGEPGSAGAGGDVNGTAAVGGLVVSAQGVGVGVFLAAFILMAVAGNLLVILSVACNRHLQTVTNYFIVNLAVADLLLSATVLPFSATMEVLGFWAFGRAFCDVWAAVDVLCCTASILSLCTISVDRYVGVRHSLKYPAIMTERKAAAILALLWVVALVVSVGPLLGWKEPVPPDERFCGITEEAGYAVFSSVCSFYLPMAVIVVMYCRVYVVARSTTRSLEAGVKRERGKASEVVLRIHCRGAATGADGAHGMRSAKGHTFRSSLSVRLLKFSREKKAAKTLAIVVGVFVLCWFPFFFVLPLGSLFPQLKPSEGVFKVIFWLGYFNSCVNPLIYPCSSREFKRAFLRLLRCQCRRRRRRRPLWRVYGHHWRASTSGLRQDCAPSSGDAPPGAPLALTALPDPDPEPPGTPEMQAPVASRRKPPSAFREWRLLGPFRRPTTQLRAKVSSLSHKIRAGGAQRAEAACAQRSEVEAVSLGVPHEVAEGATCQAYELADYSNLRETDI
T9 sequence (P21728 whole entry): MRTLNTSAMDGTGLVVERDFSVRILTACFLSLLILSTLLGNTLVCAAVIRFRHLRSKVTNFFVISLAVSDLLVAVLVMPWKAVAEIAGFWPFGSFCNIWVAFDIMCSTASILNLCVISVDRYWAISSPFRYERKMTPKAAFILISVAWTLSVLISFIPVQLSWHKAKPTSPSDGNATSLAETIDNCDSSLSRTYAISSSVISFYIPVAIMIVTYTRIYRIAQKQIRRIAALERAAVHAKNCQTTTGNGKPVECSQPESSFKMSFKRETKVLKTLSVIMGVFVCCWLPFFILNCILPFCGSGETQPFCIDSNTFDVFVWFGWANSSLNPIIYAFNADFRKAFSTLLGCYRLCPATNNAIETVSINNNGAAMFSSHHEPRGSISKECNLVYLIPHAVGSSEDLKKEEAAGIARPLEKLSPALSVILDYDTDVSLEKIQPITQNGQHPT
T4 sequence (P31645 whole entry, species assumed): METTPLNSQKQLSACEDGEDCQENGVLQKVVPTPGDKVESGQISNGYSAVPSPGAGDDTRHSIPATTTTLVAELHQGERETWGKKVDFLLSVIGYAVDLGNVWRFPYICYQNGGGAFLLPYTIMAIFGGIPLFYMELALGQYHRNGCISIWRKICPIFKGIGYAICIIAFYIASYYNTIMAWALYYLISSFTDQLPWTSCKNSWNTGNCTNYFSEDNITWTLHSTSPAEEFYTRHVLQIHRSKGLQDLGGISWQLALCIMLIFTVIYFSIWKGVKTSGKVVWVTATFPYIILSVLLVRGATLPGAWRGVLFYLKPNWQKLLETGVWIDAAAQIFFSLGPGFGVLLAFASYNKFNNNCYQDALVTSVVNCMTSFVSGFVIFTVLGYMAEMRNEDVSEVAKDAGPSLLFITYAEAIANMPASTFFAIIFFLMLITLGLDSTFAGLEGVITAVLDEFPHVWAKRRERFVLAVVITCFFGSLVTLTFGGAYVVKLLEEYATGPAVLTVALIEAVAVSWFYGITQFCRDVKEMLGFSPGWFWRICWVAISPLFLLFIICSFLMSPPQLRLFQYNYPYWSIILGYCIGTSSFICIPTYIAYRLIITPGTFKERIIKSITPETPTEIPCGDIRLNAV
T8 sequence (P28223 whole entry): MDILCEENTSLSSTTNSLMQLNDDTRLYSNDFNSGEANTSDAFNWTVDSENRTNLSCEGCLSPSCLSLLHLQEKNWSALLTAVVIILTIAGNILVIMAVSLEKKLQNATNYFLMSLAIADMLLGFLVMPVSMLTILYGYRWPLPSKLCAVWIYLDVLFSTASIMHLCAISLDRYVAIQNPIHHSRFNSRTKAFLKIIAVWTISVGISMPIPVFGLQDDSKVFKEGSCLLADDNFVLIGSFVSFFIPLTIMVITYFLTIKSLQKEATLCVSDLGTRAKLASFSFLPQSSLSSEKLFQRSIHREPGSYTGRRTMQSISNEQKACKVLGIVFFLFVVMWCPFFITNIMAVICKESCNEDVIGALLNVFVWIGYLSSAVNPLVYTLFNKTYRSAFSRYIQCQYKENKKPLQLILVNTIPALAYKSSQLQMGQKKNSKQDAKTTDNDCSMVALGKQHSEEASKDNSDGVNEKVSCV
T2 sequence (P18901 whole entry): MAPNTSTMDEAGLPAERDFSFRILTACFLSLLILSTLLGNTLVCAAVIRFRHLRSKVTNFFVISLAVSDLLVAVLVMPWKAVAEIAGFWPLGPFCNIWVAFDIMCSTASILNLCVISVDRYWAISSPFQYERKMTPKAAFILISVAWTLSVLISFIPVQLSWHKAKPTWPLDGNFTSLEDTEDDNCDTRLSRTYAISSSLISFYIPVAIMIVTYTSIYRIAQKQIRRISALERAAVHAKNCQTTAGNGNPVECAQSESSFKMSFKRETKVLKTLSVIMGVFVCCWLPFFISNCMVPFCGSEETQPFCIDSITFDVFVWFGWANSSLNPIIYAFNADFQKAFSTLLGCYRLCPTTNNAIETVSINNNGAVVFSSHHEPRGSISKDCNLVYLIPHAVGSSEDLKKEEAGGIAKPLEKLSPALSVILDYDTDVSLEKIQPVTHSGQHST
Sequence of D2 receptors (P14416 whole entry): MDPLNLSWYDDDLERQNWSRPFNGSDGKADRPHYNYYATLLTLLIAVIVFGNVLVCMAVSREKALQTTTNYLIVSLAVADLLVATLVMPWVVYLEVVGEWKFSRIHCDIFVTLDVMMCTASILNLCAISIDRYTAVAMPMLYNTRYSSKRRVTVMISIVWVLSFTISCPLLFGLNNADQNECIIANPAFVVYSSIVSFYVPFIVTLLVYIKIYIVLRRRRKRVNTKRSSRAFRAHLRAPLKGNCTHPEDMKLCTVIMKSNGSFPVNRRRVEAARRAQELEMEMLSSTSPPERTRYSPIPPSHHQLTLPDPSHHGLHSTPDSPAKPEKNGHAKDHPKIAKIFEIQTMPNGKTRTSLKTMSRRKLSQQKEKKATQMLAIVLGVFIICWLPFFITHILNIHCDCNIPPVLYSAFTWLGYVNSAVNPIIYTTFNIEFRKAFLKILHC
Sequence of Adrenergic α2B (P18089 whole entry): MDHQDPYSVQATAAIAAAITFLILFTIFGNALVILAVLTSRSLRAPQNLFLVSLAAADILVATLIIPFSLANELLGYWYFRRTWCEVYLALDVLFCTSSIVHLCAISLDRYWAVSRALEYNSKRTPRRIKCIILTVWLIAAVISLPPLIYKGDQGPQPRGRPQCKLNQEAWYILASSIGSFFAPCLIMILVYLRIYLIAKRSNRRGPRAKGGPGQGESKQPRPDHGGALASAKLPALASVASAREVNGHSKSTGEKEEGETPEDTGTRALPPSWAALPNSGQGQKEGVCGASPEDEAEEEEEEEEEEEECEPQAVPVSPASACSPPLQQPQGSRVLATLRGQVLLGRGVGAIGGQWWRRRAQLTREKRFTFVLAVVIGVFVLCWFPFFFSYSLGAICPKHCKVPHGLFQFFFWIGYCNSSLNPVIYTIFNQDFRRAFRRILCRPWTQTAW
Sequence of Adrenergic α2C (P18825 whole entry): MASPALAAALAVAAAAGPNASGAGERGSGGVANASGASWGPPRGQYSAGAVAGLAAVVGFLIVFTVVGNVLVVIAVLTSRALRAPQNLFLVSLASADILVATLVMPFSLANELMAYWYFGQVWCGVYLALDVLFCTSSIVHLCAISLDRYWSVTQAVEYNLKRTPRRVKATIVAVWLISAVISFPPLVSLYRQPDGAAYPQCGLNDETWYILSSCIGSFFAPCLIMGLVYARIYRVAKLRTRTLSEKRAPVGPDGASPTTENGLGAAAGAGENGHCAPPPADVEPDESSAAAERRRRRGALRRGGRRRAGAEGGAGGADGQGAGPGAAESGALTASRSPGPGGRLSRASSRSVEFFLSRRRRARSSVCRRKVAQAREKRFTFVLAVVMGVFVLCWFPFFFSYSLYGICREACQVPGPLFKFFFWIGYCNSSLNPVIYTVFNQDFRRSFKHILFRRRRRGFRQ
T7 sequence (P15823 whole entry): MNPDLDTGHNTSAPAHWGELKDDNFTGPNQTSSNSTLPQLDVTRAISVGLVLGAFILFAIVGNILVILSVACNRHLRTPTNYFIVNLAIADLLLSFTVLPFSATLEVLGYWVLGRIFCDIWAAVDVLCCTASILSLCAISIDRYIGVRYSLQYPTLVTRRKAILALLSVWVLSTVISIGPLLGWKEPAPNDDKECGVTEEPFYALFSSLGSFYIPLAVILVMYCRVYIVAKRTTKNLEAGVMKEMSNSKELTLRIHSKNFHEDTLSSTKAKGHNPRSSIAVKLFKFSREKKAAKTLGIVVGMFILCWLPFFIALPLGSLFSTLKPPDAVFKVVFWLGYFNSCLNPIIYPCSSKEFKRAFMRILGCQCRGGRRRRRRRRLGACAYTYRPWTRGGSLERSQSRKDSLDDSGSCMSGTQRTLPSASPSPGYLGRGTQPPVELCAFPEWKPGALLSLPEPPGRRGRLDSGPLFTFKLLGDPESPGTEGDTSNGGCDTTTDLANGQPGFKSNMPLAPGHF
T5 sequence (P08908 whole entry): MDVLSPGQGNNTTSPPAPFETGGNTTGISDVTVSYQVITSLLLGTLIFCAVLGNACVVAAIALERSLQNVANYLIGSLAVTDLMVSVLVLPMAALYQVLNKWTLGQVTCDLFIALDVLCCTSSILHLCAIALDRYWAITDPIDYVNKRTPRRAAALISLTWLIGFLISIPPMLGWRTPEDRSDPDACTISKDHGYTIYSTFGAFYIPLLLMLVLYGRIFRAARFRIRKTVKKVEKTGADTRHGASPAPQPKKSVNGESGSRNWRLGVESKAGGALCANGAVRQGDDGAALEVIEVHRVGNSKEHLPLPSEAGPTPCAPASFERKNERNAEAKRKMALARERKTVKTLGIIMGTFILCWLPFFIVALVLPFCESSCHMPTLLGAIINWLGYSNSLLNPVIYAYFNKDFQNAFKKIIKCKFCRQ

## Cl.Cl.c1ccc2c(c1)N=C(N1CCNCC1)c1ccccc1S2 [11-piperazin-1-yldibenzo[b,f][1,4]thiazepine, dihydrochloride salt]
[1]
  Ki: 234 nM
[2]
  Ki: 1490 nM
[3]
  Ki: 27 nM
[4]
  in vivo antipsychotic activity, apomorphine mouse assay: not found to be efficacious

## c1ccc2c(c1)N=C(N1CCNCC1)c1ccccc1S2 [11-piperazin-1-yldibenzo[b,f][1,4]thiazepine]
[5]
  n (Hill coefficient): 1.03 ± 0.089
[6]
  occupancy (PET), 5HT Transporter: occupies
[7]
  receptor occupancy (PET), D2: occupies
[8]
  receptor occupancy (PET), 5-HT1A: occupies
[9]
  n (Hill coefficient): 0.984 ± 0.111
[10]; 10.0 mg/kg sc
  effect on immobility in FST: antidepressant effects in this assay comparable to imipramine
[11]; 0.1 μM
  % INH.: 61%
[11]
  IC50: 69.3 nM
  Ki: 37.2 nM
[12]
  inhibition at 10 µM: 97%
[13]
  n (Hill coefficient): 0.902 ± 0.055
[14]; 10.0 mg/kg s.c.
  reduction of immobility relative to vehicle control group: more than ½
[14]; [26]
  reduction of immobility relative to vehicle control group: more than ½
[14]; 2.0, 5.0 or 10.0 mg/kg s.c., 15 minutes prior
  effect on duration of immobility: reduced immobility at all doses tested
[15]
  in vivo antipsychotic activity, D-amphetamine locomotor activity test: not found to be efficacious
[15]; listed as Formula I
  in vivo antipsychotic activity, D-amphetamine locomotor activity test: not shown to be efficacious
[16]
  average concentration in brain tissue: 2240 nmol/g
[17]; 10 μM
  % INH.: 73%
[17]
  IC50: 1410 nM
  Ki: 1290 nM
[18]
  bioavailability: 42%
[4]
  in vivo antipsychotic activity, apomorphine mouse assay: not shown to be efficacious
[19]
  n (Hill coefficient): 0.969 ± 0.012
[20]
  bioavailability: 37%
[21]
  n (Hill coefficient): 1.1 ± 0.024
[22]
  receptor occupancy (PET), 5-HT2A: occupies
[23]
  IC50: 13.4 nM
[24]
  n (Hill coefficient): 1.1 ± 0.079
[25]
  receptor occupancy (PET), D1: occupies

## OCCOCCN1CCN(C2=Nc3ccccc3Sc3ccccc32)CC1 [Quetiapine, quetiapine, reference compound]
[10]; 5.0, 10.0 and 20.0 mg/kg sc
  effect on immobility in FST: no effect

## CNCCC(Oc1ccc(C(F)(F)F)cc1)c1ccccc1 (centres unmarked) [fluoxetine, reference compound]
[14]; [26]
  reduction of immobility relative to vehicle control group: more than ½
